Test results from patent US20260137662A1, “CD11B AGONISTS FOR TREATMENT OF AUTOIMMUNE DISEASE” (Rush University Medical Center, priority 2022, published 2026).

System: RAW 264.7 murine macrophage cell line
Test: suPAR and TNFa secretion from RAW 264.7 cells treated with LN patient sera (ELISA)
Assay type: cell-based
Conditions: co-treatment LN sera (0.5%) and LA1 (20 uM), 4 hours, vs LN sera alone
Experimental: FIG. 1A illustrates levels of biomarker suPAR secretion from RAW 264.7 cells after 4 hours of treatment with cell culture medium (UT), LA1 (20 uM), LN patient sera (0.5%) in culture medium ([…]), or co-treatment with LN sera (0.5%) and LA1 (20 uM). […] FIG. 1B illustrates levels of biomarker TNFa secretion from RAW 264.7 cells after 4 hours of treatment with cell culture medium (UT), LA1 (20 uM), LN patient sera (0.5%) in culture medium ([…]), or co-treatment with LN sera (0.5%) and LA1 (20 uM). […] Myeloid cells from RAW 264.7 murine macrophage cell line were used to measure the concentration of pro-inflammatory biomarkers, soluble uPAR (suPAR) and TNFa, in the presence of lupus nephritis (LN) sera and LA1. The levels of pro-inflammatory biomarkers were measured in the supernatant of untreated cells, cells treated with LA1, cells treated with sera from patients with lupus nephritis (LN), and cells co-treated with LN sera and LA1. The concentrations of various pro-inflammatory biomarkers in cell supernatant were measured 4 hours after treatment using ELISA.

## O=C(O)c1ccc(-c2ccc(/C=C3\SC(=S)N(Cc4ccccc4)C3=O)o2)cc1 [LA1, (Z)-4-(5-((3-benzyl-4-oxo-2-thioxothiazolidin-5-ylidene)methyl)furan-2-yl)benzoic acid]
  level of TNFa in cell supernatant: significantly reduced
  level of soluble uPAR (suPAR) in cell supernatant: significantly reduced
